Article PMC12155096 (International Journal of Molecular Sciences, 2025)
Where a name gives a salt, the structure may show the parent alone. Read-outs that look alike come from different tables or passages of the source.

Columns and labels:
human CYP2C9 [1] = biological target: T1, human CYP2C9 (Homo sapiens, UniProt P11712)
human CYP1A2 = biological target: T2, human CYP1A2 (Homo sapiens, UniProt P05177)
T2 sequence (P05177 1-516): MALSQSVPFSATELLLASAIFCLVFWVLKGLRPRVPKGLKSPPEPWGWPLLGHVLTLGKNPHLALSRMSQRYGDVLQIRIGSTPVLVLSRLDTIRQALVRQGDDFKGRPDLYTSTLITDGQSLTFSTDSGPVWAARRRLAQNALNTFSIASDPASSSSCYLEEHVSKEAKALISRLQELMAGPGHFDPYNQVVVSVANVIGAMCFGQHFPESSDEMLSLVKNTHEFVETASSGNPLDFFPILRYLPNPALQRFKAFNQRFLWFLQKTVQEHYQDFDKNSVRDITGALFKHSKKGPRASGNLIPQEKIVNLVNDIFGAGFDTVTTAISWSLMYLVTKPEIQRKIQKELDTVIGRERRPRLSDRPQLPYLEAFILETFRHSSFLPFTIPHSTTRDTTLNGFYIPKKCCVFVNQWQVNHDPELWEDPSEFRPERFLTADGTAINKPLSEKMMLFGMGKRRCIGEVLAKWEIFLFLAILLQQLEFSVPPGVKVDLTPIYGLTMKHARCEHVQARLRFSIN

human CYP2C19 [2] = biological target: T3, human CYP2C19 (Homo sapiens, UniProt P33261)
T3 sequence (P33261 whole entry): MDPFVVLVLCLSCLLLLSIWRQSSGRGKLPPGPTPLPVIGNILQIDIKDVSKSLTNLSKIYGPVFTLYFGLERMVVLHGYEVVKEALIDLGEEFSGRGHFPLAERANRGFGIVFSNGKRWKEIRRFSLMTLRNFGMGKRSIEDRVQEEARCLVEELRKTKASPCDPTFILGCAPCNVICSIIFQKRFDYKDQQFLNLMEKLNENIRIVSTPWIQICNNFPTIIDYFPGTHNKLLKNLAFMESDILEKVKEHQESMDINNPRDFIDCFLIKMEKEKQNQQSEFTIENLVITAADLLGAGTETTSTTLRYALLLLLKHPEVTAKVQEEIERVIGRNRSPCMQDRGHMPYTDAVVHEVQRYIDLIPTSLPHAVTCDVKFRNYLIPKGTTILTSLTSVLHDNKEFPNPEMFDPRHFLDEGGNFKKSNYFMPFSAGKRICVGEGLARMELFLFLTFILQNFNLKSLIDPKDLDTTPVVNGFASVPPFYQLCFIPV

human CYP2D6 = human CYP2D6 (Homo sapiens, UniProt P10635)
Sequence of human CYP2D6 (P10635 whole entry): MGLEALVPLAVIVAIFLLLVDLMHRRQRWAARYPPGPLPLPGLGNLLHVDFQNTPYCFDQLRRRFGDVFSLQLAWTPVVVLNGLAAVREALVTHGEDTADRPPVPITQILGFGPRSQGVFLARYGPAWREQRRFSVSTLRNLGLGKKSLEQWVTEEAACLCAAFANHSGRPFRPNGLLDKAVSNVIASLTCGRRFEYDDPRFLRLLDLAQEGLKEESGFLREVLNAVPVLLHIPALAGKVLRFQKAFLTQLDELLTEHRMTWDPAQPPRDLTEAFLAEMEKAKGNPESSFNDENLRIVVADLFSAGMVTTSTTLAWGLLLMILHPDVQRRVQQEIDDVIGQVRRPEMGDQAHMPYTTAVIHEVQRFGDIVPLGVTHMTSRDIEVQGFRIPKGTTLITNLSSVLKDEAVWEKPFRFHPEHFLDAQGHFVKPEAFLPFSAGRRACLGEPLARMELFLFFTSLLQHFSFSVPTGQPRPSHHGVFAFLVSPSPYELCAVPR

human CYP2C9 [3] = biological target: T1, human CYP2C9; assay: biochemical
human CYP2C19 [4] = biological target: T3, human CYP2C19; assay: biochemical
[5] = CYP2C9 AC50 (half-maximal activity concentration)
[6] = CYP2C19 IC50 (half-maximal inhibitory concentration)
[7] = CYP2C19 AC50 (half-maximal activity concentration)
[8] = CYP2C9 IC50 (half-maximal inhibitory concentration)

T1 sequence (P11712 whole entry): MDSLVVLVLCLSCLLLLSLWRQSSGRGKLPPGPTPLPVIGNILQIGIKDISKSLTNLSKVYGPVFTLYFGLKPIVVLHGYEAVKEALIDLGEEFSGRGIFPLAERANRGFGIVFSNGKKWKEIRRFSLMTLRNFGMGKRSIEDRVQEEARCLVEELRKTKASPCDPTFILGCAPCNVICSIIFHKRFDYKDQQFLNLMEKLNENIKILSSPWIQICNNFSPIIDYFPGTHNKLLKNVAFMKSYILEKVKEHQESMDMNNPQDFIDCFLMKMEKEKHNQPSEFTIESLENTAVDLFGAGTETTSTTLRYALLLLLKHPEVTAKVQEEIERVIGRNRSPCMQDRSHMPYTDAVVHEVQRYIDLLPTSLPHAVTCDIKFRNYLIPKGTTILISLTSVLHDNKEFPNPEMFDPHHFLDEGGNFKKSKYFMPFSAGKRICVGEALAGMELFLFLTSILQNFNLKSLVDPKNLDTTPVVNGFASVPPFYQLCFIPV

O=C1c2ccccc2C(=O)C1C(=O)C(c1ccccc1)c1ccc(Cl)cc1 (stereo not drawn) [Cholorophacinone]
IC50 (human CYP2C9 [1]): 0.9 µM

CC(=O)O[C@]1(C(C)=O)CC[C@H]2[C@@H]3C=C(Cl)C4=CC(=O)[C@@H]5C[C@@H]5[C@]4(C)[C@H]3CC[C@@]21C [Cyproterone acetate]
CYP1A2 AC50 (half-maximal activity concentration) (human CYP1A2): Inactive | CYP2C19 AC50 (half-maximal activity concentration) (human CYP2C19 [2]): Inconclusive inhibitor | CYP2D6 AC50 (half-maximal activity concentration) (human CYP2D6): Inactive | AC50 (human CYP2C9 [3]; [5]): 15 µM

COc1cc([C@@H]2c3cc4c(cc3[C@H](O)[C@H]3COC(=O)[C@H]23)OCO4)cc(OC)c1OC [Podofilox]
IC50 (human CYP2C9 [3]): 1.97 µM | IC50 (human CYP2C19 [4]; [6]): 3.71 µM

CC(=O)Oc1ccc(C2(c3ccc(OC(C)=O)cc3)C(=O)Nc3ccccc32)cc1 [Oxyphenisatin acetate]
AC50 (human CYP2C9 [3]; [5]): 5.5 µM | AC50 (human CYP2C19 [4]; [7]): 11.9 µM

Cc1cc(-c2cc(C)c(N)c(C)c2)cc(C)c1N [3,3'.5,5'-Tetramethylbenzidine]
IC50 (human CYP1A2): 0.45 µM

CCC(=O)O[C@]1(C(=O)COC)[C@@H](C)C[C@H]2[C@@H]3CCC4=CC(=O)C=C[C@]4(C)[C@@]3(F)[C@@H](O)C[C@@]21C [Amelometasone]
IC50 (human CYP2C9 [1]): 26 µM | IC50 (human CYP2C19 [2]): 43.6 µM | IC50 (human CYP2D6): 19.5 µM

COCCCC/C(=N\OCCN)c1ccc(C(F)(F)F)cc1 [fluvoxamine, reference compound]
IC50 (human CYP1A2; human): 0.2 µM

O=C(OCC(COC(=O)c1cccnc1)(COC(=O)c1cccnc1)COC(=O)c1cccnc1)c1cccnc1 [Niceritrol]
IC50 (human CYP2C9 [3]): 3.44 µM

CC(=O)N(c1onc(C)c1C)S(=O)(=O)c1ccc(N)cc1 [Sulfisoxazole acetal]
AC50 (human CYP2C9 [3]; [5]): 25.8 µM

CC1(C)C(C=C(Cl)Cl)C1C(=O)OC(C#N)c1cccc(Oc2ccccc2)c1 (stereo not drawn) [Cypermethrin]
AC50 (human CYP2C9 [3]; [5]): 11.9 µM | AC50 (human CYP2C19 [4]; [7]): 24.6 µM

CC(C)[C@H]1CC[C@H](C(=O)N[C@H](Cc2ccccc2)C(=O)O)CC1 [Nateglinide]
AC50 (human CYP2C9 [3]; [5]): 14 µM

CCCOC(=O)Cc1ccc(OCC(=O)N(CC)CC)c(OC)c1 [Propanidid]
AC50 (human CYP2C9 [3]; [5]): 21.2 µM

CC(C)C[C@H]1C(=O)N2CCC[C@H]2[C@]2(O)O[C@](NC(=O)[C@@H]3C=C4c5cccc6[nH]c(Br)c(c56)C[C@H]4N(C)C3)(C(C)C)C(=O)N12 [Bromocriptine mesylate]
IC50 (human CYP2C9 [3]; [8]): 7.32 µM | IC50 (human CYP2C19 [4]; [6]): 20.8 µM

CN(C)C(=O)C(CCN1CCC(O)(c2ccc(Cl)cc2)CC1)(c1ccccc1)c1ccccc1 [Loperamide hydrochloride]
AC50 (human CYP2C19 [4]; [7]): 40.5 µM

CN(CCOc1ccc(CC2SC(=O)NC2=O)cc1)c1ccccn1 (stereo not drawn) [Rosiglitazone maleate]
CYP2C19 AC50 (half-maximal activity concentration) (human CYP2C19 [2]): Inconclusive inhibitor

C[C@]12CCC(=O)C=C1CC[C@@H]1[C@@H]2CC[C@@]2(C)[C@H]1CC[C@]2(C)O [17-Methyltestosterone]
AC50 (human CYP2C9 [3]; [5]): 32.7 µM

O=c1[nH]c2ccccc2n1C1CCN(CCCC(c2ccc(F)cc2)c2ccc(F)cc2)CC1 [Pimozide]
CYP1A2 AC50 (half-maximal activity concentration) (human CYP1A2): Inactive

O=C(O)Cc1ccccc1Oc1ccc(Cl)cc1Cl [Fenclofenac]
AC50 (human CYP2C9 [3]): 29.7 ± 12.5 µM

Sc1ncnc2nc[nH]c12 [6-Mercaptopurine]
AC50 (human CYP2C9 [3]; [5]): 22 µM | AC50 (human CYP2C19 [4]; [7]): 34.7 µM

CN1C(CSCC(F)(F)F)Nc2cc(Cl)c(S(N)(=O)=O)cc2S1(=O)=O (stereo not drawn) [Polythiazide]
AC50 (human CYP2C9 [3]; [5]): 14.9 µM | AC50 (human CYP2C19 [4]; [7]): 22 µM

Nc1nc2ccccc2n1Cc1ccc(F)cc1
CYP1A2 Efficacy (in parenthesis) (human CYP1A2): 19.77 ± 4.14 (-57 ± 9) % | IC50 (human CYP1A2): 19.8 µM | CYP2C19 Efficacy (in parenthesis) (human CYP2C19 [2]): 17.62 ± 3.69 (-115 ± 18) % | IC50 (human CYP2C19 [2]): 17.6 µM | CYP2D6 Efficacy (in parenthesis) (human CYP2D6): 0.67 ± 0.04 (-102 ± 1) % | IC50 (human CYP2D6): 0.67 µM

CC(C)C[C@H](NC(=O)[C@H](CCc1ccccc1)NC(=O)CN1CCOCC1)C(=O)N[C@@H](Cc1ccccc1)C(=O)N[C@@H](CC(C)C)C(=O)[C@@]1(C)CO1 [Carfilzomib]
IC50 (human CYP2C9 [3]; [8]): 29.2 µM

CCOC(=O)C1=C(C)NC(C)=C(C(=O)OC)C1c1cccc([N+](=O)[O-])c1 (stereo not drawn) [Nitrendipine]
IC50 (human CYP2C9 [3]; [8]): 0.88 µM | IC50 (human CYP2C19 [4]; [6]): 1.4 µM

COC(=O)N[C@H](C(=O)N[C@@H](Cc1ccccc1)[C@@H](O)CN(Cc1ccc(-c2ccccn2)cc1)NC(=O)[C@@H](NC(=O)OC)C(C)(C)C)C(C)(C)C [Atazanavir]
IC50 (human CYP2C9 [3]): 15.5 µM | IC50 (human CYP2C19 [4]): 36.4 ± 6.55 µM

CCCC(CCC)C(=O)O [Valproic acid]
AC50 (human CYP2C9 [3]; [5]): 47.3 µM

CCOC(=O)O[C@]1(C(=O)OCCl)CC[C@H]2[C@@H]3CCC4=CC(=O)C=C[C@]4(C)[C@H]3[C@@H](O)C[C@@]21C [Loteprednol etabonate, reference compound]
IC50 (human CYP2C9 [3]; [8]): 29.2 µM

CCC(=O)O[C@H]1CC[C@H]2[C@@H]3CCC4=CC(=O)CC[C@]4(C)[C@H]3CC[C@]12C [Testosterone propionate]
AC50 (human CYP2C9 [3]; [5]): 30.9 µM | AC50 (human CYP2C19 [4]; [7]): 26 µM

Cc1nc2ccccc2c(=O)n1-c1ccccc1Cl [Mecloqualone]
AC50 (human CYP2C9 [3]; [5]): 37.7 µM | AC50 (human CYP2C19 [4]; [7]): 2.88 µM

CC(C)(C)C(=O)OCOC(=O)[C@@H]1N2C(=O)[C@@H](NC(=O)[C@H](N)c3ccccc3)[C@H]2SC1(C)C [Pivampicillin]
IC50 (human CYP2C9 [3]; [8]): 23.6 µM

COc1ccc(S(=O)(=O)Nc2nnc(CC(C)C)s2)cc1 [Glysobuzole]
AC50 (human CYP2C9 [3]; [5]): 12.5 µM

CC(C)(c1ccc(O)cc1)c1ccc(O)cc1 [Bisphenol A]
AC50 (human CYP2C9 [3]; [5]): 29.1 µM | AC50 (human CYP2C19 [4]; [7]): 20 µM

CCCc1ccc(OCC(=O)N2CCN(C(=O)COc3ccc(CCC)cc3OC)CC2)c(OC)c1 [Simetride]
IC50 (human CYP2C9 [3]): 6.41 ± 6.45 µM | IC50 (human CYP2C19 [4]): 17 ± 19.1 µM

O=C(O)c1ccccc1Nc1cccc(C(F)(F)F)c1 [Flufenamic acid]
AC50 (human CYP2C9 [3]): 23.9 ± 9.43 µM

CC(=O)Oc1ccc2c(c1)CC[C@@H]1[C@@H]2CC[C@]2(C)[C@@H](O)CC[C@@H]12 [Estradiol acetate]
AC50 (human CYP2C19 [4]): 20.6 ± 4.65 µM

CCCCCCCCCC(=O)O [Decanoic acid]
AC50 (human CYP2C9 [3]; [5]): 69.7 µM

O=C1OC(c2ccc(O)c(S(=O)(=O)O)c2)(c2ccc(O)c(S(=O)(=O)O)c2)c2c(Br)c(Br)c(Br)c(Br)c21 [Sulfobromophthalein]
AC50 (human CYP2C9 [3]; [5]): 43.6 µM

C[C@]12CCC(=O)C=C1[C@@H]1C[C@@H]1[C@H]1[C@@H]3[C@@H]4C[C@@H]4[C@@]4(CCC(=O)O4)[C@@]3(C)CC[C@@H]12 [Drospirenone]
AC50 (human CYP2C9 [3]): 26.4 ± 7.81 µM | AC50 (human CYP2C19 [4]): 1.17 ± 0.35 µM

O=C(O)Cn1c(=O)n(Cc2ccc(Br)cc2F)c(=O)c2ccc(Cl)cc21 [Zenarestat]
AC50 (human CYP2C9 [3]): 14.4 ± 0.97 µM

CCCSP(=O)(OCC)SCCC [Ethoprop]
AC50 (human CYP2C9 [3]; [5]): 37 µM | AC50 (human CYP2C19 [4]; [7]): 20 µM

COc1ccc(S(=O)(=O)N2c3ccc(Cl)cc3[C@](O)(c3ccccc3Cl)[C@@H]2C(=O)N2CCC[C@H]2C(N)=O)cc1OC [Relcovaptan]
IC50 (human CYP2C9 [3]): 27.7 ± 9.09 µM

Fc1ccc(C(c2ccc(F)cc2)N2CCN(C/C=C/c3ccccc3)CC2)cc1 [Flunarizine]
AC50 (human CYP2C9 [3]; [5]): 14.9 µM

Cl[C@H]1[C@H](Cl)[C@@H](Cl)[C@@H](Cl)[C@H](Cl)[C@H]1Cl [Lindane]
AC50 (human CYP2C9 [3]; [5]): 43.2 µM | AC50 (human CYP2C19 [4]; [7]): 35.7 µM

CCC1=C[C@@H]2CN(C1)Cc1c([nH]c3ccccc13)[C@@](C(=O)OC)(c1cc3c(cc1OC)N(C)[C@H]1[C@@](O)(C(=O)OC)[C@H](OC(C)=O)[C@]4(CC)C=CCN5CC[C@]31[C@@H]54)C2 [Vinorelbine tartrate]
IC50 (human CYP2C9 [3]; [8]): 21 µM

CCCOC(C(=O)OC1CCN(C)CC1)(c1ccccc1)c1ccccc1.Cl [Propiverine hydrochloride]
IC50 (human CYP2D6): 6.81 µM

COCC(=O)N(c1c(C)cccc1C)C(C)C(=O)OC (stereo not drawn) [Metalaxyl]
AC50 (human CYP2C9 [3]; [5]): 59.1 µM | AC50 (human CYP2C19 [4]; [7]): 38.4 µM

O=C(O)Cn1c(C(=O)Nc2nc(-c3ccccc3Cl)cs2)cc2ccccc21 [Lintitript]
AC50 (human CYP2C9 [3]; [5]): 35.1 µM

CC1(C)C(C=C(Cl)Cl)C1C(=O)OC(C#N)c1cccc(Oc2ccccc2)c1 (stereo not drawn) [alpha-Cypermethrin]
AC50 (human CYP2C9 [3]; [5]): 3.56 µM | AC50 (human CYP2C19 [4]; [7]): 6.44 µM

CCC(C)(C)c1ccc(O)cc1 [4-(2-Methylbutan-2-yl)phenol]
AC50 (human CYP2C9 [3]; [5]): 14.8 µM | AC50 (human CYP2C19 [4]; [7]): 4.21 µM

Cc1ccccc1C(=O)Nc1ccc(C(=O)N2CCCC(N(C)C)c3ccccc32)cc1 (stereo not drawn) [Mozavaptan]
CYP2C9 Efficacy (in parenthesis) (human CYP2C9 [1]; human): 26.02 ± 12.23 (-35 ± 0) % | IC50 (human CYP2C9 [3]; [8]): 26 µM
